Key:
cells = conditions: Homo sapiens, CRL8155
[1] = biological target: T1, Calmodulin-domain protein kinase 1 (Toxoplasma gondii, UniProt Q9BJF5)
T1 sequence (Q9BJF5 whole entry): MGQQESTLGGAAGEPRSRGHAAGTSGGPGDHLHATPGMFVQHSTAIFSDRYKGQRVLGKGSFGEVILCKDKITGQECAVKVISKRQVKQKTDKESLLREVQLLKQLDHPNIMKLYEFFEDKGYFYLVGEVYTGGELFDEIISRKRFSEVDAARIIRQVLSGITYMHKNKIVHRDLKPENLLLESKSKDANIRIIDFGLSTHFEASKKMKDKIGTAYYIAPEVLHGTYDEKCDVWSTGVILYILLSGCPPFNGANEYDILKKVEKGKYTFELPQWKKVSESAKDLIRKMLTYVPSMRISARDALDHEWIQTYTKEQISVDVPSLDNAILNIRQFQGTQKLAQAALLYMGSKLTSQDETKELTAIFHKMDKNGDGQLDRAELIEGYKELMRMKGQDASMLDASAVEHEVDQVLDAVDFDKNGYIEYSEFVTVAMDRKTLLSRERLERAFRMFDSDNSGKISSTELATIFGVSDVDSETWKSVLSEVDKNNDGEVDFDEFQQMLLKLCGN

in vivo [2] = conditions: mouse, plasma, po, 10 mg/kg
in vivo [3] = conditions: mouse, po, 10 mg/kg

Question: With `CCOc1ccc2cc(-c3nn(C(C)(C)C)c(N)c3C(N)=O)ccc2c1` as the molecule, how does the EC50 (cells) read?
Answer: > 30 µM

Question: Which EC50 (cells) does the source give for `NC(=O)c1c(-c2ccc3ccccc3c2)nn(CC(F)(F)F)c1N` here?
Answer: > 30 µM

Question: Which EC50 (cells) does the source give for `CC(C)(C)Cn1nc(-c2ccc3ccccc3c2)c(C(N)=O)c1N` here?
Answer: > 40 µM

Question: For `COc1ccc2cc(-c3nn(C(C)(C)C)c(N)c3C(N)=O)ccc2c1`, which EC50 (cells) is on record?
Answer: > 40 µM

Question: For `CC(C)(C)n1nc(-c2ccc3c(N)n[nH]c3c2)c(C(N)=O)c1N`, which IC50 [1] is on record?
Answer: 0.04 µM

Question: Which EC50 (cells) does the source give for `CC(C)(C)n1nc(-c2cnc3ccccc3c2)c(C(N)=O)c1N` here?
Answer: > 40 µM

Question: With `CCOc1ccc2cc(-c3nn(C(C)(C)C)c(N)c3C(N)=O)cnc2c1` as the molecule, how does the EC50 (cells) read?
Answer: > 30 µM

Question: And the AUC (in vivo [2])?
Answer: 41.7 µM·h

Question: And the Cmax at 1 h (in vivo [3])?
Answer: 10 µM

Source: ChEMBL document CHEMBL3108667, “Potent and selective inhibitors of CDPK1 from T. gondii and C. parvum based on a 5-aminopyrazole-4-carboxamide scaffold” (ACS Med Chem Lett, 2014)
